Data reported in US20050222013A1, “Methods for the use of inhibitors of histone deacetylase as synergistic agents in cancer therapy” (Georgetown University, priority 2003, published 2005).

What was measured:
Type in all cases: cell-based, human
SQ-20B cells [1] = assay: IC50 determination by clonogenic cell kill (24 hour drug treatment, colonies scored after 2 to 3 weeks); conditions: 24 hour treatment
Method: IC50 is defined as the concentration of the HDAC inhibitor that kills 50% of cells following treatment with the drug. To determine the IC50, a series of dilutions of drug is used over a broad range, for example 0-1.6 μg/ml. Approximately 100-400 cells are seeded into T-25 flasks in triplicate and treated with various concentrations of the drug. After a 24 hour treatment, the cells are washed with standard PBS (phosphate buffered saline) solution. Cells are then grown in fresh media for 2 to 3 weeks. Colonies are stained with crystal violet and scored. Concentrations of drugs showing 50% cell death represent the IC50 concentration.

SQ-20B cells [2] = assay: Clonogenic survival after ionizing radiation, fit to the single hit multitarget and linear quadratic models; set-up: α (linear quadratic model) / β (linear quadratic model) / Do (multitarget model radiosensitivity): unit not given here; conditions: for Do (multitarget model radiosensitivity) / α (linear quadratic model) / β (linear quadratic model): SQ-20B cells treated with drug at IC50, then gamma radiation
Method: Logarithmically growing SQ-20B cells were treated with TSA (about 60 ng/ml) for about 24 h and the medium was replaced with fresh medium. Cells were exposed to a graded dose of gamma radiation. A semi-logarithmic plot of the data for these cells is shown. Clonogenic survival numbers were determined and fit to the single hit multitarget and the linear quadratic models for analysis, measured by clonogenic survival analysis. Points and bars represent mean+/−SEM from triplicate flasks in each experiment.
The effectiveness of a particular treatment can be determined by measuring the radiation survival. Post treatment survival can be studied both in vitro and in vivo. For example, for in vitro determinations, exponentially growing cells can be exposed to known doses of radiation and the survival of the cells monitored. Irradiated cells are plated and cultured for about 14-about 21 days, and the colonies are stained. The surviving fraction is […]. Graphing the surviving fraction on a log scale versus the absorbed dose on a linear scale generates a survival curve. Survival curves generally show an exponential decrease in the fraction of surviving cells at higher radiation doses after an initial shoulder region in which the dose is sublethal. A similar protocol can be used for chemical agents.
Two mathematical models are commonly employed to analyze radiation survival data. A first model is the multi-target model. In this analysis, the reciprocal of the slope of the survival curve is defined as D0, the radiosensitivity of the cell population or tissue under investigation. D0 is the dose required to reduce the surviving fraction to about 37% in the exponential portion of the survival curve. The extrapolation of the linear portion of the curve to the y-intercept is denoted n. The width of the shoulder region is represented by drawing a line from the 100% survival point to the extrapolation line, this width is denoted Dq. Dq is the quasi-threshold dose, or the point at which the reduction in surviving fraction as a function of radiation dosage becomes exponential. The Dq value can also provide an estimate of an additional total dose required for each division of a single dose therapy into fractional doses. The additional dose is required to overcome the effect of sublethal damage repair that occurs when two sublethal doses are separated in time.
The linear quadratic model (surviving fraction=[…]) is used to fit radiation survival data to a continuously bending curve, where D is dose and α and β are constants. Alpha is the linear component, a measure of the initial slope that represents single-hit killing kinetics and dominates the radiation response at low doses. Beta is the quadratic component of cell killing, that represents multiple-hit killing and causes the curve to bend at higher doses. The alpha:beta ratio is the dose at which the linear and quadratic components of cell killing are equal. The more linear the response to killing of cells at low radiation dose, the higher is the value of alpha, and the greater is the radiosensitivity of the cells.
A semi-logarithmic plot of the mean+/−SEM from triplicate flasks in each experiment for these cells is shown. Logarithmically growing SQ-20B cells were treated with TSA (about 60 ng/ml) for about 24 h and the medium was replaced with fresh medium. Cells were exposed to a graded dose of gamma radiation. Clonogenic survivals were determined and fit to the single hit multitarget and the linear quadratic models for analysis.

SQ-20B cells [3] = assay: Cell cycle distribution by flow cytometry (G1 phase); conditions: for Duration of G1 arresting effect: about 24 hour exposure, TSA about 60 ng/ml, mimosine about 0.4 mM
Method: FIGS. 2A and 2B show cell cycle distributions of SQ20B cells after treatment with either TSA (FIG. 2A) or mock treatment (FIG. 2B) for 24 h. Cells were washed with fresh medium and exposed to about 10 Gy ionizing radiation. Cell nuclei were prepared for flow cytometric analysis using the procedure of Vindelov et al. (46). The samples were analyzed on a Becton-Dickinson FACStarplus instrument and the percentage of nuclei with G1, S, and G2/M DNA content was determined. […] The radiation sensitivity of cells is a function of the cell cycle. The lethal effect of radiation exposure is often observed only after subsequent cell division. Accordingly, the G1 phase is the more radiation sensitive phase. The compounds employed in the invention are observed to maintain cells in the G1 phase following radiation exposure. Comparing FIG. 2A to FIG. 2B, it can be seen that exposure of SQ-20B cells to TSA for about 24 hours prior to radiation results in an accumulation of more than about 70% of cells in the G1 phase and a maintenance of about 50% of cells for about 12 hours. After treatment with either TSA (panel A) or mock treatment (panel B) for about 24 h, cells were washed with fresh medium and exposed to about 10 Gy ionizing radiation. Cell nuclei were prepared for flow cytometric analysis. The samples were analyzed on a Becton-Dickinson FACStarplus® instrument and the percentage of nuclei with G1, S, and G2/M DNA content was determined. By comparison, irradiated mock-treated cells are not arrested.

SQ-20B cells [4] = assay: Apoptotic index
Method: SQ-20B cells were exposed to about 10 Gy of irradiation. Time zero refers to cells that were subjected to sham irradiation. At the indicated times thereafter, attached and floating cells were collected and the number of apoptotic cells was determined as a percentage of the total number of cells (apoptotic index). Data shown represent mean values±SD from three independent experiments.
HDAC inhibitors are known to promote cancer cell death through apoptosis in vitro and in vivo. This has been a basis for the use of HDAC inhibitors at high concentrations as a single agent in chemical therapy. However, we have determined that the amount effective to synergize radiation-induced cell death is substantially less than the amount required to promote apoptosis. […] Concentrations that produce these effects can be determined for any HDAC inhibitory compound by one of skill in the art by observation of markers of apoptosis such as, for example, the apoptotic index and caspase activities.
Treatment with TSA (about 60 ng/ml) or mock treatment was followed by radiation (about 10 Gy). At about 24, about 48, and about 72 hours, attached and floating cells were collected and the number of apoptotic cells was determined as a percentage of the total number of cells (apoptotic index).

Structure (SMILES): C/C=C1\NC(=O)[C@H]2CSSCC/C=C/[C@H](CC(=O)N[C@H](C(C)C)C(=O)N2)OC(=O)[C@H](C(C)C)NC1=O [FR, depsipsptide (FR 901228)]
- IC50 (concentration that kills 50% of cells) (SQ-20B cells [1]): 0.005 µg/mL
- Do (multitarget model radiosensitivity) (SQ-20B cells [2]): 1.65
- α (linear quadratic model) (SQ-20B cells [2]): 0.104
- β (linear quadratic model) (SQ-20B cells [2]): 0.033

Structure (SMILES): CN(C)c1ccc(C(=O)NCCCCCCC(=O)NO)cc1 [M344]
- IC50 (concentration that kills 50% of cells) (SQ-20B cells [1]): 0.32 µg/mL
- Do (multitarget model radiosensitivity) (SQ-20B cells [2]): 1.65
- α (linear quadratic model) (SQ-20B cells [2]): 0.077
- β (linear quadratic model) (SQ-20B cells [2]): 0.033

Structure (SMILES): CN(C)c1ccc(C(=O)NCCCCCC(=O)NO)cc1 [MD85]
- IC50 (concentration that kills 50% of cells) (SQ-20B cells [1]): 0.1 µg/mL
- Do (multitarget model radiosensitivity) (SQ-20B cells [2]): 2.49
- α (linear quadratic model) (SQ-20B cells [2]): 0.024
- β (linear quadratic model) (SQ-20B cells [2]): 0.022

Structure (SMILES): O=C(CCCCCCC(=O)Nc1ccccc1)NO [SAHA, suberonylanilide hydroxamic acid]
- Do (multitarget model radiosensitivity) (SQ-20B cells [2]): 1.88
- α (linear quadratic model) (SQ-20B cells [2]): 0.011
- β (linear quadratic model) (SQ-20B cells [2]): 0.031

Structure (SMILES): CC(/C=C/C(=O)NO)=C\[C@@H](C)C(=O)c1ccc(N(C)C)cc1 [TSA, trichostatin A]
- IC50 (concentration that kills 50% of cells) (SQ-20B cells [1]): about 60 ng/ml
- Do (multitarget model radiosensitivity) (SQ-20B cells [2]): 1.64
- α (linear quadratic model) (SQ-20B cells [2]): 0.126
- β (linear quadratic model) (SQ-20B cells [2]): 0.030
- Sensitization to ionizing radiation (SQ-20B cells [2]; head and neck tumor cells, at about the IC50 concentration): significantly sensitized head and neck tumor cells to ionizing radiation
- Duration of G1 arresting effect (SQ-20B cells [3]): about 12 hours
- Cells accumulated in the G1 phase (SQ-20B cells [3]; exposure for about 24 hours prior to radiation (about 10 Gy)): more than 70%
- Cells maintained in the G1 phase (SQ-20B cells [3]; maintained for about 12 hours after about 10 Gy): about 50%
- Apoptotic index, treated versus mock treated (SQ-20B cells [4]; about 60 ng/ml followed by about 10 Gy, about 24, 48, 72 hours): the number of treated and untreated apoptotic cells were similar
- Promotion of apoptosis (SQ-20B cells [4]; at about 3 to about 7 times the IC50): does promote apoptosis
- Promotion of apoptosis (SQ-20B cells [4]; at concentrations of about 200-about 400 ng/ml): did promote significant apoptosis
- Promotion of apoptosis (SQ-20B cells [4]; at the IC50 concentration of about 60 ng/ml): did not promote significant apoptosis

Structure (SMILES): NC(Cn1ccc(=O)c(O)c1)C(=O)O (stereo not shown) [mimosine]
- Duration of G1 arresting effect (SQ-20B cells [3]): about 4 hours
